“And” between values parts separate entries of the source, which are not always exact repeats. Identical values can stand only once. Numbers after ± are expanded uncertainties.
Conditions: Crystal; for mass density: 298.15 K, 101.33 kPa, measurement of volume and mass of pellet; for vapor or sublimation pressure: Calculated from knudsen effusion weight loss

c1ccc(-c2cccc(-c3ccccc3)c2)cc1 [m-terphenyl]
Conditions | mass density [kg/m3] | vapor or sublimation pressure
– | 1140 ± 20 | –
337.28 K | – | 6.28e-05 ± 3.2e-06 kPa and 6.44e-05 ± 3.2e-06 kPa and 6.48e-05 ± 3.3e-06 kPa
339.22 K | – | 8.09e-05 ± 4.1e-06 kPa and 8.13e-05 ± 4.1e-06 kPa and 7.88e-05 ± 4e-06 kPa
341.11 K | – | 0.000101 ± 5e-06 kPa and 9.73e-05 ± 4.9e-06 kPa
343.27 K | – | 0.000133 ± 7e-06 kPa and 0.00013 ± 1e-05 kPa and 0.000134 ± 7e-06 kPa
345.21 K | – | 0.000164 ± 8e-06 kPa and 0.000163 ± 8e-06 kPa and 0.000162 ± 8e-06 kPa
347.1 K | – | 0.000197 ± 1e-05 kPa and 0.000204 ± 1e-05 kPa
349.27 K | – | 0.000263 ± 1.3e-05 kPa and 0.000257 ± 1.3e-05 kPa and 0.000264 ± 1.3e-05 kPa
351.2 K | – | 0.000324 ± 1.6e-05 kPa and 0.000328 ± 1.6e-05 kPa
353.11 K | – | 0.000403 ± 2e-05 kPa and 0.000399 ± 2e-05 kPa
355.28 K | – | 0.000518 ± 2.6e-05 kPa and 0.000524 ± 2.6e-05 kPa and 0.000532 ± 2.7e-05 kPa
357.19 K | – | 0.000655 ± 3.3e-05 kPa and 0.00065 ± 3.3e-05 kPa and 0.000648 ± 3.2e-05 kPa
359.1 K | – | 0.000797 ± 4e-05 kPa and 0.00081 ± 4.1e-05 kPa and 0.000807 ± 4e-05 kPa

c1ccc(-c2ccccc2-c2ccccc2)cc1 [o-terphenyl]
Conditions | mass density [kg/m3] | vapor or sublimation pressure
– | 1120 ± 20 | –
312.3 K | – | 6.04e-05 ± 3e-06 kPa and 6.13e-05 ± 3.1e-06 kPa and 5.87e-05 ± 2.9e-06 kPa
313.79 K | – | 7.08e-05 ± 3.6e-06 kPa and 7.16e-05 ± 3.6e-06 kPa
315.13 K | – | 8.28e-05 ± 4.2e-06 kPa
315.14 K | – | 8.47e-05 ± 4.2e-06 kPa and 8.48e-05 ± 4.3e-06 kPa
315.78 K | – | 7.29e-05 ± 1.2e-05 kPa
316.78 K | – | 0.000103 ± 5e-06 kPa and 0.000102 ± 5e-06 kPa and 0.000104 ± 5e-06 kPa
318.28 K | – | 0.000125 ± 6e-06 kPa and 0.000123 ± 6e-06 kPa and 0.000124 ± 6e-06 kPa
319.64 K | – | 0.000143 ± 7e-06 kPa and 0.000145 ± 7e-06 kPa and 0.000148 ± 7e-06 kPa
321.28 K | – | 0.000181 ± 9e-06 kPa and 0.000179 ± 9e-06 kPa and 0.000174 ± 9e-06 kPa
322.78 K | – | 0.000217 ± 1.1e-05 kPa and 0.000212 ± 1.1e-05 kPa
324.14 K | – | 0.000247 ± 1.2e-05 kPa and 0.000249 ± 1.2e-05 kPa
325.78 K | – | 0.000305 ± 1.5e-05 kPa and 0.000308 ± 1.5e-05 kPa and 0.0003 ± 1.5e-05 kPa
327.28 K | – | 0.000368 ± 1.8e-05 kPa and 0.00036 ± 1.8e-05 kPa and 0.000361 ± 1.8e-05 kPa
328.63 K | – | 0.000419 ± 2.1e-05 kPa and 0.000422 ± 2.1e-05 kPa and 0.000423 ± 2.1e-05 kPa

c1ccc(-c2ccc(-c3ccccc3)cc2)cc1 [p-terphenyl]
Conditions | mass density [kg/m3] | vapor or sublimation pressure
– | 1200 ± 20 | –
373.27 K | – | 0.000127 ± 6e-06 kPa and 0.000126 ± 6e-06 kPa and 0.000125 ± 6e-06 kPa
375.22 K | – | 0.000154 ± 8e-06 kPa and 0.000153 ± 8e-06 kPa
377.14 K | – | 0.000185 ± 9e-06 kPa and 0.000189 ± 9e-06 kPa and 0.000182 ± 9e-06 kPa
379.28 K | – | 0.000232 ± 1.2e-05 kPa and 0.000233 ± 1.2e-05 kPa and 0.000234 ± 1.2e-05 kPa
381.21 K | – | 0.00028 ± 2e-05 kPa and 0.000283 ± 1.4e-05 kPa and 0.000281 ± 1.4e-05 kPa
383.28 K | – | 0.000344 ± 1.7e-05 kPa and 0.000347 ± 1.7e-05 kPa and 0.000348 ± 1.7e-05 kPa
385.17 K | – | 0.000421 ± 2.1e-05 kPa and 0.000417 ± 2.1e-05 kPa
387.12 K | – | 0.000516 ± 2.6e-05 kPa and 0.000498 ± 2.5e-05 kPa
389.27 K | – | 0.000628 ± 3.1e-05 kPa and 0.000626 ± 3.1e-05 kPa and 0.000631 ± 3.2e-05 kPa
391.16 K | – | 0.000748 ± 3.7e-05 kPa and 0.000758 ± 3.8e-05 kPa and 0.000757 ± 3.8e-05 kPa
393.22 K | – | 0.000928 ± 4.6e-05 kPa and 0.000931 ± 4.7e-05 kPa and 0.000922 ± 4.6e-05 kPa
395.27 K | – | 0.001137 ± 0.00012 kPa and 0.001131 ± 0.00012 kPa and 0.001138 ± 0.00012 kPa

From the NIST ThermoML archive (doi:10.1016/j.jct.2007.08.008)
